According to US20170049843A1, “Hepatocyte Growth Factor Mimics as Therapeutic Agents” (WASHINGTON STATE UNIVERSITY, priority 2011, published 2017):
Counter-ions that a name gives are not always drawn. Where a SMILES comes first, the peptide text is derived from it. Where no end group is shown, it is not given here. [ ]: non-standard residue; d: D form. dNle = CCCC[C@@H](N)C(=O)O; Ahx = NCCCCCC(=O)O; GABA = NCCCC(=O)O

Assays:
hippocampal neurons [1] = experiment: Spinogenesis in mRFP-β-actin transfected dissociated hippocampal neurons; assay type: cell-based, rat
Experimental: Hippocampal neurons ([…] cells per square cm) were cultured from P1 Sprague Dawley rats on plates coated with poly-L-lysine from Sigma (St. Louis, Mo.; molecular weight 300,000). Hippocampal neurons were maintained in Neurobasal A media from Invitrogen (Carlsbad, Calif.) supplemented with B27 from Invitrogen, 0.5 mM L-glutamine, and […] cytosine-D-arabinofuranoside from Sigma added at 2 days in vitro. Hippocampal neurons were then cultured a further 3-7 days, at which time they were either transfected or treated with various pharmacological reagents as described in (Wayman, Davare et al. 2008).
Neurons were transfected with mRFP-β-actin on day in vitro 6 (DIV6) using LipofectAMINE™ 2000 (Invitrogen) according to the manufacturer's protocol. This protocol yielded the desired 3-5% transfection efficiency thus enabling the visualization of individual neurons. Higher efficiencies obscured the dendritic arbor of individual neurons. Expression of fluorescently tagged actin allowed clear visualization of dendritic spines, as dendritic spines are enriched in actin. On DIV7 the cells were treated with vehicle (H20) or peptides (as described in the text) added to media. On DIV12 the neurons were fixed (4% paraformaldehyde, 3% sucrose, 60 mM PIPES, 25 mM HEPES, 5 mM EGTA, 1 mM MgCl2, pH 7.4) for 20 min at room temperature and mounted. Slides were dried for at least 20 hours at 4° C. and fluorescent images were obtained with Slidebook 4.2 Digital Microscopy Software driving an Olympus IX81 inverted confocal microscope with a 60× oil immersion lens, NA 1.4 and resolution 0.280 μm Dendritic spine density was measured on primary and secondary dendrites at a distance of at least 150 μm from the soma. Five 50 μm long segments of dendrite from at least 10 neurons per data point were analyzed for each data point reported. Each experiment was repeated at least three times using independent culture preparations. Dendrite length was determined using the National Institutes of Health's Image J 1.41o program (NIH, Bethesda, Md.) and the neurite tracing program Neuron J (Meijering, Jacob et al. 2004) Spines were manually counted.
Hippocampal neurons (2×10^5 cells per square centimeter) were cultured from P1-2 Sprague Dawley rats on plates coated with poly-L-lysine from Sigma (St. Louis, Mo.; molecular weight 300,000). Hippocampal neurons were maintained in Neurobasal A media from Invitrogen (Carlsbad, Calif.) supplemented with B27 from Invitrogen, 0.5 mM L-glutamine, and […] cytosine-D-arabinofuranoside from Sigma added at 2 days in vitro. Hippocampal neurons were then cultured a further 3-7 days, at which time they were either transfected or treated with various pharmacological reagents as described in the text or figure legends.

scopolamine treated rats = experiment: Morris water maze, scopolamine amnesia model; assay type: in vivo, rat; conditions: for mean latency to find the pedestal, final day of training / mean latency to find the pedestal, fourth day of training / mean latency to find the pedestal, day one of training: icv, scopolamine 70 nmol, Dihexa 300 pmol, Hinge 300 pmol; for mean latency to find the pedestal, final day of training / mean latency to find the pedestal, fourth day of training: vehicle 43.0 s; for mean latency to find the pedestal, day one of training: vehicle 89.3 s
MDCK cells [2] = experiment: Inhibition of HGF-dependent scattering in MDCK cells; assay type: cell-based, canine; conditions: for inhibition of HGF-dependent scattering in MDCK cells: HGF 20 ng/ml, 48 h
Experimental: (§1) MDCK cells were grown to 100% confluency on the coverslips in six-well plates and washed twice with PBS. The confluent coverslips were then aseptically transferred to new six well plates containing 900 μl serum free DMEM. Norleual, Hinge peptide, and/or HGF (20 ng/ml) were added to appropriate wells. Control wells received PBS vehicle. Plates were incubated at 37° C. with 5% CO2 for 48 hours. Media was removed and cells were fixed with methanol. Cells were stained with Diff-Quik Wright-Giemsa (Dade-Behring, Newark, Del.) and digital images were taken. Coverslips were removed with forceps and more digital images were captured. Pixel quantification of images was achieved using Image J and statistics were performed using Prism 5 and InStat v.3.05.
as §1, with “h.” for “hours.”, “v.3.05 (GraphPad; San Diego, Calif.).” for “v.3.05.”

hippocampal neurons [3] = experiment: Whole-cell recordings of mEPSCs in dissociated hippocampal neurons; assay type: cell-based, rat; set-up: mean mEPSC frequency: unit not given beside the values; conditions: 5 days; Hinge 10^−12 M, HGF 10 ng/ml, Dihexa 10^−12 M, alone or combined; vehicle 5.31±0.35
Met = experiment: Inhibition of HGF-dependent Met phosphorylation in HEK293 cells; assay type: cell-based, human; conditions: 10 min
Experimental: HEK293 cells were seeded in 6 well tissue culture plates and grown to 95% confluency in DMEM containing 10% FBS. The cells were serum deprived for 24 h prior to the treatment to reduce the basal levels of phospho-Met. Following serum starvation, cocktails comprised of vehicle and HGF with/without 6-AH analogs were prepared and pre-incubated for 30 min at room temperature. The cocktail was then added to the cells for 10 min to stimulate the Met receptor and downstream proteins. Cells were harvested using RIPA lysis buffer (Millipore; Billerica, Mass.) fortified with phosphatase inhibitor cocktails 1 and 2 (Sigma-Aldrich; St. Louis, Mo.). The lysate was clarified by centrifugation at 15,000 n×g for 15 min, protein concentrations were determined using the BCA total protein assay (Pierce), and then appropriate volumes of the lysates were diluted with 2× reducing Laemmli buffer and heated for ten min at 95° C. Samples containing identical amounts of protein were resolved using SDS-PAGE (Criterion, BioRad Laboratories), transferred to nitrocellulose, and blocked in Tris-buffered saline (TBS) containing 5% milk for 1 h at room temperature. The phospho-Met antibody were added to the blocking buffer at a final concentration of 1:1000 and incubated at 4° C. overnight with gentle agitation. The membranes were then washed several times with water and TBS ([…]), a 1:5000 dilution of horseradish-peroxidase conjugated goat anti-rabbit antiserum was added, and the membranes further incubated for 1 h at room temperature. Proteins were visualized using the Supersignal West Pico Chemiluminescent Substrate system (Pierce, Fenton, Mo.) and molecular weights determined by comparison to protein ladders (BenchMark, Invitrogen, and Kaleidoscope, BioRad). Film images were digitized and analyzed using a UVP phosphoimager.

HGF [4] = molecular target: T1, HGF (Homo sapiens, UniProt P14210); experiment: HGF binding, competition with 3H-Hinge
T1 construct: purchased R&D Systems (Minneapolis, Minn.)
Experimental: The binding of 6-AH analogs to HGF was assessed by competition using a soluble binding assay. 250 μl of PBS containing human HGF (1.25 ng) were incubated with ^3H-Hinge, the central dimerization domain of HGF, in the presence of varying concentrations of 6-AH analogs between 10^−13 M to 10^−7M (half-log dilutions) for 40 min at 37° C. The incubates were then spun through Bio-Gel P6 spin columns (400 μl packed volume) for 1 min to separate free and bound ^3H-Hinge and the eluent was collected. Five milliliters of scintillation fluid was added to the eluent, which contained the HGF bound ^3H-Hinge, and was then counted using scintillation counter. Total disintegrations per minute of bound ^3H-Hinge were calculated based on machine counting efficiency. The Ki values for the binding of the peptides were determined using the Prism 5. Competition binding curves were performed in triplicate.

HGF [5] = molecular target: T1, HGF; experiment: HGF dimerization; assay type: biochemical; conditions: analog at 10^−10M, 30 minute incubation with heparin
Experimental: HGF dimerization was assessed using PAGE followed by silver staining (Kawas et al., 2011). Human HGF at a concentration of 0.08 ng/μl with or without 6-AH analogs was incubated with heparin at a final concentration of 5 μg/ml. Loading buffer was then added to each sample and the mixture separated by native PAGE using gradient Criterion XT precast gels (4-12% Bis-Tris; Biorad Laboratories, Hercules, Calif.). Next the gel was silver stained for the detection of the HGF monomers and dimers. Bands were quantitated from digital images using a UVP phosphoimager (Upland, Calif.).

Blood stability studies = assay type: in vitro ADME, rat; conditions: rat, heparinized whole blood, heparinized rat blood, 37° C., single phase exponential decay; read-out: stability t1/2 in blood
Experimental: At the end of each incubation, 20 μL of Nle^1-AngIV (100 μg/mL) was added to each sample as an internal standard. […] All samples were centrifuged at 4° C., 2300× g for 5 min and the supernatants were transferred to clean tubes.
Samples were then separated by HPLC on an Econosphere C18 (100 mm×2.1 mm) from Grace Davison Discovery Science (Deerfield, Ill.). […] The mobile phase consisted of HPLC water (Sigma St. Louis, Mo.) with 0.1% trifluoroacetic or 0.1% heptafluorobutyric acid (Sigma St. Louis, Mo.) and varying concentrations of ACN or methanol. Separation was carried out using a gradient method, at ambient temperature and a flow rate of 0.3 mL/min (see below for more information). Stability half-lives were determined assuming a normal single phase exponential decay using Prism 5 graphical/statistical program (GraphPad, San Diego, Calif.).

MDCK cells [6] = experiment: HGF-dependent MDCK cell proliferation (MTT); assay type: cell-based, canine; conditions: 10^−10 M, 4 days, HGF 10 ng/ml
Experimental: 5000 MDCK cells were seeded into the wells of a 96 well plates in 10% FBS DMEM. To induce cellular quiescence, the cells were serum deprived for 24 h prior to initiating the treatments. Following serum starvation, 10 ng/ml HGF alone and with various concentrations of 6-AH analogs or PBS vehicle were added to the media. The cells were allowed to grow under these conditions for 4 days with a daily addition of 6-AH analogs. On the fourth day, 1 mg/ml of 1-(4, 5-Dimethylthiazol-2-yl) 3, 5-diphenylformazan reagent (MTT, Sigma-Aldrich) prepared in PBS was added to the cells and incubated for 4 h. Dimethyl sulfoxide diluted in a 0.01M glycine buffer was added to solubilize the cell membranes and the absorbance of reduced MTT in the buffer was quantitated at 590 nm using a plate reader (Biotek Synergy 2, Winooski, Vt.). HGF-dependent proliferation was determined by subtracting the basal proliferation (in the absence of HGF) from total proliferation rates in groups containing HGF.

T1 sequence (P14210 32-728): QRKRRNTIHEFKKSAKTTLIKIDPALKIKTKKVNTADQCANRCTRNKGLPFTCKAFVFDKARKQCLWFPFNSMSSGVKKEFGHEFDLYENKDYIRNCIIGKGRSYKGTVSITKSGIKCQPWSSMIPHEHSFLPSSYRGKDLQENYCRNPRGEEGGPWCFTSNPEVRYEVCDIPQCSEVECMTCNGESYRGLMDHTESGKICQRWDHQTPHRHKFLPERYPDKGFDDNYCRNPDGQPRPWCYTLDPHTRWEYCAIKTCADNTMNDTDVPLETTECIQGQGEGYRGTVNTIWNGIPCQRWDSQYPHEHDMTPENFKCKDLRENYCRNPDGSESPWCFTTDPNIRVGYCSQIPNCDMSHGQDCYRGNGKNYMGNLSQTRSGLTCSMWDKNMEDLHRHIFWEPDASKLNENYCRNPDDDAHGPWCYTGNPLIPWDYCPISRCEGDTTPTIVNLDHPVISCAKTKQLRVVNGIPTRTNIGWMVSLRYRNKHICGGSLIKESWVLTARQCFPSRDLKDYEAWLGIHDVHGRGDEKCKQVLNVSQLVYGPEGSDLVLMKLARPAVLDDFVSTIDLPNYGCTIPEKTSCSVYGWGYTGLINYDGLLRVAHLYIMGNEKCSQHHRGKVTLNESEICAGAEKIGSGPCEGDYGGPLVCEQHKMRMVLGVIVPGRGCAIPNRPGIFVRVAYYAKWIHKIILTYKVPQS

Question: For acetyl-Nle-YIH, which dendritic spine numbers (hippocampal neurons [1]; 10^-8 and 10^-10 M) is on record?
Answer: increased spine numbers

Question: And the dendritic spine numbers (hippocampal neurons [1]; concentrations lower than 10^-10 M)?
Answer: increasing spine numbers at even lower concentrations

Question: For [GABA]-Tyr-Ile [GABA-YI], which “time in the target quadrant, day 9 probe trial” value (scopolamine treated rats; analog 1 nmol icv after scopolamine) is on record?
Answer: different than all the other treated groups

Question: And the dendritic spine numbers (hippocampal neurons [1]; 10^-8 and 10^-10 M)?
Answer: increased spine numbers

Question: For “DYIRNC (Synthetic hinge peptide) [HGF antagonist peptide representing the dimerization (hinge) domain of HGF; also printed KDYIRN, reference compound]”, which “inhibition of scattering of MDCK cells by Hinge” value (MDCK cells [2]) is on record?
Answer: inhibit scattering of Madin-Darby canine kidney (MDCK) cells

Question: What about the “mean latency to find the pedestal, final day of training” value (scopolamine treated rats) of the same compound?
Answer: 46.1 s

Question: What about the “mean latency to find the pedestal, fourth day of training” value (scopolamine treated rats) of the same compound?
Answer: 78.3 s

Question: And the “mean latency to find the pedestal, day one of training” value (scopolamine treated rats)?
Answer: 111.1 s

Question: And the “mean mEPSC frequency” value (hippocampal neurons [3])?
Answer: 4.51±0.47

Question: And the “inhibition of spine formation in stimulated neurons” value (hippocampal neurons [1]; neurons stimulated with 10 ng/ml HGF, 10^−12 M Nle1-AngIV or 10^−12 M Dihexa)?
Answer: effectively inhibit spine formation

Question: What about the “effect of Hinge alone on basal spinogenesis” value (hippocampal neurons [1]; wide range of doses) of the same compound?
Answer: no effect on spinogenesis over a wide range of doses

Question: With Nle-YIH-amide as the compound, how does the dendritic spine numbers (hippocampal neurons [1]; 10^-8 and 10^-10 M) read?
Answer: increased spine numbers

Question: What does the source list for `CCCC[C@@H](N)C(=O)N[C@@H](CCSC)C(=O)N[C@H](C(=O)NCCCCCC(N)=O)[C@@H](C)CC` [D-Nle-Met-Ile-NH—(CH2)5—CONH2] (H-[dNle]MI[Ahx]-NH2)?
Answer: inhibition of HGF-dependent Met phosphorylation (Met): no ability to effect on Met activation; inhibition of HGF-dependent Met phosphorylation (Met; listed as Met): not different than the HGF group; affinity for HGF (in words) (HGF [4]): low affinity for HGF; inhibition of HGF-dependent scattering in MDCK cells (MDCK cells [2]): not different; inhibition of HGF dimerization (HGF [5]): unable to block dimerization at the concentration tested

Question: With `CCCC[C@H](N)C(=O)N[C@@H](Cc1ccc(O)cc1)C(=O)N[C@H](CN[C@@H](Cc1c[nH]cn1)C(=O)N1CCC[C@H]1C(=O)N[C@@H](Cc1ccccc1)C(=O)O)CC(C)C` [Norleual, Nle-Tyr-Leu-Ψ-(CH2—NH2)^3-4-His-Pro-Phe, reference compound] as the compound, how does the half-life (Blood stability studies) read?
Answer: < 5 min

Question: For `CN1[C@@H]2C[C@@H](OC(=O)[C@H](CO)c3ccccc3)C[C@H]1[C@@H]1O[C@@H]12` [scopolamine, scopolamine hydrobromide, reference compound], which “mean latency to find the pedestal, final day of training” value (scopolamine treated rats) is on record?
Answer: 84.8 s

Question: What about the “mean latency to find the pedestal, fourth day of training” value (scopolamine treated rats) of the same compound?
Answer: 102.4 s

Question: And the “mean latency to find the pedestal, day one of training” value (scopolamine treated rats)?
Answer: 114.7 s

Question: For `CCCC[C@@H](N)C(=O)N[C@@H](Cc1c[nH]c2ccccc12)C(=O)N[C@H](C(=O)NCCCCCC(N)=O)[C@@H](C)CC` [D-Nle-Trp-Ile-NH—(CH2)5—CONH2] (H-[dNle]WI[Ahx]-NH2), which “inhibition of HGF-dependent Met phosphorylation” value (Met) is on record?
Answer: intermediate inhibitory activity

Question: What about the “affinity for HGF (in words)” value (HGF [4]) of the same compound?
Answer: moderate affinity for HGF

Question: What about the “inhibition of HGF-dependent MDCK cell proliferation” value (MDCK cells [6]) of the same compound?
Answer: inhibitory activity, albeit less than that observed with the most potent analogs

Question: And the “inhibition of HGF-dependent scattering in MDCK cells” value (MDCK cells [2])?
Answer: different from the HGF alone group but not different from the control group

Question: What about the “inhibition of HGF dimerization” value (HGF [5]) of the same compound?
Answer: intermediate inhibition of dimerization

Question: And the “inhibition of HGF dimerization” value (HGF [5]; listed as Trp)?
Answer: statistically different than the HGF treated group
